Assay results published in patent EP0823908B1, “PYRIDO[2,3-d]PYRIMIDINES FOR INHIBITING PROTEIN TYROSINE KINASE MEDIATED [sequence] PROLIFERATION” (Warner-Lambert Company LLC, priority 1995, dated 1996).
Where two headings read alike, the source gives them in different places.

Legend:
[1] = biological target: T1, human FGF-1 (flg) receptor tyrosine kinase (Homo sapiens, UniProt P11362); experiment: FGF receptor tyrosine kinase assay (32P incorporation into glutamate-tyrosine co-polymer); assay type: biochemical
T1 construct: amplify a fragment of DNA that codes for the intracellular tyrosine kinase domain; made in house; host or cells: SF9 insect cells (baculovirus)
T1 sequence (P11362 478-767 limits assumed): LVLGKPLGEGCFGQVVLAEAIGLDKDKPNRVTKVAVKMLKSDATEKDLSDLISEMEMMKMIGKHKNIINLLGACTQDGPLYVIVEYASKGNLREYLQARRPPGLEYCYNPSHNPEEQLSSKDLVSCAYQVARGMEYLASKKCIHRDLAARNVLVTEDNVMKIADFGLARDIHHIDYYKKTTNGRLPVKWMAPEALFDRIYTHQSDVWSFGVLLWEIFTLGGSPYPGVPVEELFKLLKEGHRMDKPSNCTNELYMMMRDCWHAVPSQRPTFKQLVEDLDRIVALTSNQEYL
How it was run: (§1)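 32P transfer from γ32P-ATP (50 µM ATP) to poly(Glu,Tyr) 4:1 was measured over 10 min at 25°C and counted after TCA precipitation onto filters, minus the no-enzyme background. Enzyme was baculovirus/SF9 lysate of the kinase domain, preincubated 10 min with inhibitor in Hepes pH 7.0, MnCl2, vanadate.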

[2] = biological target: T2, mouse PDGF-β receptor tyrosine kinase (Mus musculus, UniProt P05622); experiment: PDGF receptor tyrosine kinase assay (32P incorporation into glutamate-tyrosine co-polymer); assay type: biochemical; details: for IC50: read-out: PDGFr-TK IC50
T2 construct: amplify a fragment of DNA that codes for the intracellular tyrosine kinase domain; made in house; host or cells: SF9 insect cells (baculovirus)
T2 sequence (P05622 599-961 limits assumed): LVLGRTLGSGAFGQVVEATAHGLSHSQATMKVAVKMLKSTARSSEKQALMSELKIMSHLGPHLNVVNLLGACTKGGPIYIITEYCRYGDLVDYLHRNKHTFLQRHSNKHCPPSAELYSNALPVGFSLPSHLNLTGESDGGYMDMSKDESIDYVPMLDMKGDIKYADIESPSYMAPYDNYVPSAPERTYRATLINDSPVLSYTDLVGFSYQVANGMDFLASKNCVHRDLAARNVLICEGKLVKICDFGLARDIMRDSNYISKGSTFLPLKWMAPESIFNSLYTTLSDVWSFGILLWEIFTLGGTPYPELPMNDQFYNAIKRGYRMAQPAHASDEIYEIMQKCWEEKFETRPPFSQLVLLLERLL
How it was run: as §1

[3] = tested on: HCT-8; experiment: Soft agar colony formation, human colon adenocarcinoma cells; assay type: cell-based; details: HCT-8, 336 h, read-out: Inhibition of Human Colon Adenocarcinoma IC50, HCT-8
Method: (§2) Three such human cell lines were identified as HCT-8, SW-620, and HT-29. In a typical assay, the cells are suspended in 0.3% soft agar containing an invention compound at various concentration levels, and are plated into six-well plates, each plate containing a 1% agar plug. The cell plates are incubated at 37°C in a humidified carbon dioxide (5%) incubator, generally for 2 weeks. At the end of the incubation period, colonies of cells are detected by staining the wells with 1 mg/mL of p-iodonitrotetrazolium violet. The cells are counted on an optical colony counter. […] TABLE III. Inhibition of Human Colon Adenocarcinoma IC50 (µM)

[4] = biological target: T3, Human EGF receptor tyrosine kinase (Homo sapiens, UniProt P00533); experiment: EGF receptor tyrosine kinase enzyme assay (substrate peptide phosphorylation); assay type: biochemical; details: for IC50: read-out: EGF-FL IC50; for inhibition at 50 µM: read-out: EGF-FL % Inhibition at 50 µM
T3 construct: Human EGF receptor tyrosine kinase was isolated from A431 epidermoid carcinoma cells; endogenous in cells; host or cells: A431 epidermoid carcinoma cells
T3 sequence (P00533 25-1210): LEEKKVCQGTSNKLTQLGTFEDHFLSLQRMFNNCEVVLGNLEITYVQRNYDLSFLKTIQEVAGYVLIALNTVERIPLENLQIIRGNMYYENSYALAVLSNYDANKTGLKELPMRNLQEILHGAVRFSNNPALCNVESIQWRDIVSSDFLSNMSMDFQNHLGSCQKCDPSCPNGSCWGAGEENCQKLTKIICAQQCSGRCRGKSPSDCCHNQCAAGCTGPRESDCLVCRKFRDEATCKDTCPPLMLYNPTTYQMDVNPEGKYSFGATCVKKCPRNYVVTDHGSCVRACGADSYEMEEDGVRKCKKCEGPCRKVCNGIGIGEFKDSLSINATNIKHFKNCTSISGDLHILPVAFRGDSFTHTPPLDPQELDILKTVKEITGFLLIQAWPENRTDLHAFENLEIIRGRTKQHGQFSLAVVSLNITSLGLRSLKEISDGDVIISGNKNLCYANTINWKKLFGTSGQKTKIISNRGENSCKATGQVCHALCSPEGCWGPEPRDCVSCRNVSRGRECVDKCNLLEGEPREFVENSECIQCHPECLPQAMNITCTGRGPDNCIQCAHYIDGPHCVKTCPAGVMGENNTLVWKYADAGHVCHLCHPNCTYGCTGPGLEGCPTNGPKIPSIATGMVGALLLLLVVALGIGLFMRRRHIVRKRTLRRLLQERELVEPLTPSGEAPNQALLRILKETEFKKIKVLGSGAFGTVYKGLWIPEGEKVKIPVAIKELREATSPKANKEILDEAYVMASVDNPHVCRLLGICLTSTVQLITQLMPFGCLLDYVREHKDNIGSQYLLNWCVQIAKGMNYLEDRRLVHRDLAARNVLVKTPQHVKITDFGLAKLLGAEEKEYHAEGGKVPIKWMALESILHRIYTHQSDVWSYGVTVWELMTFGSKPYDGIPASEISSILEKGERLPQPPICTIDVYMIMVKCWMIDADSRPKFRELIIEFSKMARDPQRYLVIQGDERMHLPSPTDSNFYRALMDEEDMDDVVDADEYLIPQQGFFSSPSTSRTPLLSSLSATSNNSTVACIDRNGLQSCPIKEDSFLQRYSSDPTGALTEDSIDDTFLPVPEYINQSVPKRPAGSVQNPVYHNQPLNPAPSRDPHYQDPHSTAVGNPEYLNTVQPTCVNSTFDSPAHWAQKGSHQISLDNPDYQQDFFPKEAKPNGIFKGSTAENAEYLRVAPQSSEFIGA
Method: Human EGF receptor tyrosine kinase was isolated from A431 epidermoid carcinoma cells by the following methods. Cells were grown in roller bottles in 50% Dulbecco's Modified Eagle medium and 50% HAM F-12 nutrient media (Gibco) containing 10% fetal calf serum. Approximately 10^9 cells were lysed in two volumes of buffer containing 20 mM 2-(4N-[2-hydroxymethyl]-piperazin-1-yl)ethanesulfonic acid, pH 7.4, 5 mM ethylene glycol bis(2-aminoethyl ether) N,N,N',N'-tetraacetic acid, 1% Triton X-100, 10% glycerol, 0.1 mM sodium orthovanadate, 5 mM sodium fluoride, 4 mM pyrophosphate, 4 mM benzamide, 1 mM dithiothreitol, 80 µg/mL aprotinin, 40 µg/mL leupeptin, and 1 mM phenylmethylsulfonyl fluoride. […] Contaminating proteins were washed from the resin with 1 M NaCl in equilibration buffer, and the enzyme was eluted with 0.5 M N-acetyl-1-D-glucosamine in equilibration buffer.
The reaction was terminated by the addition of 2 mL of 75 mM phosphoric acid and passed through a 2.5-cm phosphocellulose filter disc to bind the peptide. The filter was washed 5 times with 75 mM phosphoric acid and placed in a vial along with 5 mL of scintillation fluid (Ready gel Heckman).

[5] = biological target: T4, C-src kinase (Homo sapiens, UniProt P12931); experiment: C-src kinase assay (poly GluTyr substrate); assay type: biochemical; details: for IC50: read-out: C-src TK IC50; for inhibition at 50 µM: read-out: C-src TK % Inhibition at 50 µM
T4 construct: made in house; host or cells: baculovirus infected insect cells
T4 sequence (P12931 whole entry): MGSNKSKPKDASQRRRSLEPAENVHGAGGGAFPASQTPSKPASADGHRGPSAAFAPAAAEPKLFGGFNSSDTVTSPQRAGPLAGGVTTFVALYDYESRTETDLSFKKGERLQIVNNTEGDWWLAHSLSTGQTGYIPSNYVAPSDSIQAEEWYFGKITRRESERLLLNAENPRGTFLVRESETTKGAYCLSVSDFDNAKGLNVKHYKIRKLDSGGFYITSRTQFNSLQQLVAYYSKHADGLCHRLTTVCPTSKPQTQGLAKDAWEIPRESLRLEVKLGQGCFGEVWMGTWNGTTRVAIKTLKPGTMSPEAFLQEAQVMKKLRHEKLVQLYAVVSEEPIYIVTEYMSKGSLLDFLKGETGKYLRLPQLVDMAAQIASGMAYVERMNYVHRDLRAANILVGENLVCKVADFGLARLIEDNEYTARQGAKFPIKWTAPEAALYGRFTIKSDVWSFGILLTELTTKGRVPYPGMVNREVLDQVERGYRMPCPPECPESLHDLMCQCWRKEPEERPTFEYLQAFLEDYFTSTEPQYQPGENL

[6] = tested on: SW-620; experiment: Soft agar colony formation, human colon adenocarcinoma cells; assay type: cell-based; details: SW-620, 336 h, colony formation in 0.3% soft agar, generally 2 weeks, read-out: Inhibition of Human Colon Adenocarcinoma IC50, SW-620
Method: as §2

[7] = tested on: HT-29; experiment: as above; assay type: cell-based; details: HT-29, 336 h, colony formation in 0.3% soft agar, generally 2 weeks, read-out: Inhibition of Human Colon Adenocarcinoma IC50, HT-29
Method: as §2

[8] = colony formation in 0.3% soft agar, generally 2 weeks

IC50 [2] [nM]	IC50 [4] [nM]	IC50 [5] [nM]	IC50 ([1]; read-out: FGFr-TK IC50) [nM]	IC50 [6] [nM]	IC50 [3, 8] [nM]	IC50 [7] [nM]	inhibition at 50 µM [5] [%]	inhibition at 50 µM [4] [%]	inhibition at 50 µM ([2]; read-out: PDGFr-TK % Inhibition at 50 µM) [%]	Compound	IC50 [1] [nM]	IC50 [3] [nM]
1680		70	3010	1100						Cn1c(=O)c(-c2c(Cl)cccc2Cl)cc2cnc(Nc3ccc(Cl)cc3)nc21 [Example 56, 2-(4-Chlorophenylamino)-6-(2,6-dichlorophenyl)-8-methyl-8H-pyrido[2,3-d]pyrimidin-7-one]		
440	89	50	646	520	250	740				Cn1c(=O)c(-c2c(Cl)cccc2Cl)cc2cnc(Nc3ccc4c(c3)OCO4)nc21 [Example 57, 2-(Benzo[1,3]dioxol-5-ylamino)-6-(2,6-dichlorophenyl)-8-methyl-8H-pyrido[2,3-d]pyrimidin-7-one]		
1010	140		1050		1000					Cc1ccc(Nc2ncc3cc(-c4c(Cl)cccc4Cl)c(=O)n(C)c3n2)cc1 [Example 63, 6-(2,6-Dichlorophenyl)-8-methyl-2-p-tolylamino-8H-pyrido[2,3-d]pyrimidin-7-one]		
593	120	79	214			1110				CCn1c(=O)c(-c2c(Cl)cccc2Cl)cc2cnc(Nc3ccccc3)nc21 [Example 69, 6-(2,6-Dichloropherlyl)-8-ethyl-2-pherlylamino-8H-pyrido[2,3-d]pyrimidin-7-one]		
475		70	109			3500				CCn1c(=O)c(-c2c(Cl)cccc2Cl)cc2cnc(NCCCN3CCN(C)CC3)nc21 [Example 70, 6-(2,6-Dichlorophenyl)-8-ethyl-2-[3-(4-methyl-piperazin-1-yl)-propylamino]-8H-pyrido[2,3-d]pyrimidin-7-one]		
353	21		141				0			CCn1c(=O)c(-c2c(Cl)cccc2Cl)cc2cnc(Nc3ccc(O)cc3)nc21 [Example 75, 6-(2,6-Dichlorophenyl)-8-ethyl-2-(4-hydroxyphenylamino)-8H-pyrido[2,3-d]pyrimidin-7-one]		
2380	300		466				33			CCOc1ccc(Nc2ncc3cc(-c4c(Cl)cccc4Cl)c(=O)n(CC)c3n2)cc1 [Example 76, 6-(2,6-Dichlorophenyl)-2-(4-ethoxyphenylamino)-8-ethyl-8H-pyrido[2,3-d]pyrimidin-7-one]		
1110	94	19	124							CCn1c(=O)c(-c2c(Cl)cccc2Cl)cc2cnc(Nc3ccc(OC)c(OC)c3)nc21 [Example 77, 6-(2,6-Dichlorophenyl)-2-(3,4-dimethoxyphenylamino)-8-ethyl-8H-pyrido[2,3-d]pyrimidin-7-one]		
1690	97		143				46			CCn1c(=O)c(-c2c(Cl)cccc2Cl)cc2cnc(Nc3cc(OC)c(OC)c(OC)c3)nc21 [Example 78, 6-(2,6-Dichlorophenyl)-8-ethyl-2-(3,4,5-trimethoxyphenylamino)-8H-pyrido[2,3-d]pyrimidin-7-one]		
1180	59	19								COc1cc(Nc2ncc3cc(-c4c(Cl)cccc4Cl)c(=O)n(C)c3n2)cc(OC)c1 [Example 83, 6-(2,6-Dichlorophenyl)-2-(3,5-dimethoxypherlylamino)-8-methyl-8H-pyrido[2,3-d]pyrimidin-7-one]	333	
390	630	23	250							COC(=O)Cc1ccc(Nc2ncc3cc(-c4c(Cl)cccc4Cl)c(=O)n(C)c3n2)cc1 [Example 84, {4-[6-(2,6-Dichlorophenyl)-8-methyl-7-oxo-7,8-dihydro-pyrido[2,3-d]pyrimidin-2-ylamino]phenyl]-acetic acid, methyl ester]		
370	1320	13	560							COc1ccc(Nc2ncc3cc(-c4c(Cl)cccc4Cl)c(=O)n(C)c3n2)cn1 [Example 85, 6-(2,6-Dichlorophenyl)-2-(6-methoxypyridin-3-ylamino)-8-methyl-8H-pyrido[2,3-d]pyrimidin-7-one]		
70	130	9	61							Cn1c(=O)c(-c2c(Cl)cccc2Cl)cc2cnc(Nc3ccc(CC(=O)O)cc3)nc21 [Example 86, {4-[6-(2,6-Dichlorophenyl)-8-methyl-7-oxo-7,8-dihydro-pyrido[2,3-d]pyrimidin-2-ylamino]phenyl}-acetic acid]		
140	150	6	110							Cn1c(=O)c(-c2c(Cl)cccc2Cl)cc2cnc(Nc3cccc(C(=O)O)c3)nc21 [Example 90, 3-[6-(2,6-Dichlorophenyl)-8-methyl-7-oxo-7,8-dihydro-pyrido[2,3-d]pyrimidin-2-ylamino]-benzoic acid]		
5050		158	1190					87		Nc1ncc2cc(-c3c(Cl)cccc3Cl)c(=O)n(Cc3ccccc3)c2n1 [Example 108, 2-Amino-8-benzyl-6-(2,6-dichlorophenyl)-8H-pyrido[2,3-d]pyrimidin-7-one]		
9290	62	240	3370							Nc1ncc2cc(-c3c(Cl)cccc3Cl)c(=O)n(Cc3cccc(Br)c3)c2n1 [Example 109, 2-Amino-8-(3-bromobenzyl)-6-(2,6-dichlorophenyl)-8H-pyrido[2,3-d]pyrimidin-7-one]		
		17200	20300					64	25	COC(=O)c1ccc(Cn2c(=O)c(-c3c(Cl)cccc3Cl)cc3cnc(N)nc32)cc1 [Example 110, 4-[2-Amino-6-(2,6-dichlorophenyl)-7-oxo-7H-pyrido[2,3-d]pyrimidin-8-yl-methyl]-benzoic acid methyl ester]		
3150	1400	41	1500							Nc1ncc2cc(-c3c(Cl)cccc3Cl)c(=O)n(Cc3c(Cl)cccc3Cl)c2n1 [Example 111, 2-Amino-8-(2,6-dichlorobenzyl)-6-(2,6-dichlorophenyl)-8H-pyrido[2,3-d]pyrimidin-7-one]		
11200		1160	9100					19		COc1ccc(Cn2c(=O)c(-c3c(Cl)cccc3Cl)cc3cnc(N)nc32)cc1 [Example 112, 2-Amino-6-(2,6-dichlorophenyl)-8-(4-methoxyhenzyl)-8H-pyrino[2,3-d]pyrimidin-7-one]		
5170	3200	1090	3310							Nc1ncc2cc(-c3c(Cl)cccc3Cl)c(=O)n(CCCc3ccccc3)c2n1 [Example 114, 2-Amino-6-(2,6-dichlorophenyl)-8-(3-phenylpropyl)-8H-pyrido[2,3-d]pyrimidin-7-one]		
152	180	1380	1960							CCn1c(=O)c(-c2ccccc2)cc2cnc(Nc3ccccc3)nc21 [Example 116, 8-Ethyl-6-phenyl-2-phenylamino-8H-pyrido[2,3-d]-pyrimidin-7-one]		

Compound	IC50 [2] [nM]	IC50 [4] [nM]	IC50 [5] [nM]	IC50 ([1]; read-out: FGFr-TK IC50) [nM]	IC50 [6] [nM]	IC50 [3, 8] [nM]	IC50 [7] [nM]	inhibition at 50 µM [5] [%]	inhibition at 50 µM [4] [%]	inhibition at 50 µM ([2]; read-out: PDGFr-TK % Inhibition at 50 µM) [%]	IC50 [1] [nM]	IC50 [3] [nM]
CN1CCN(CCCNc2ncc3cc(-c4c(Cl)cccc4Cl)c(=O)n(C)c3n2)CC1 [Example 38, 6-(2,6-Dichlorophenyl)-8-methyl-2-[3-(4-methylpiperazin-1-yl)-propylamino]-8H-pyrido[2,3-d]pyrimidin-7-one]	1090	8700	3								230	3150
